Reference: patent US8952024B2, “Herbicidal pyrimidone derivatives” (E I du Pont de Nemours and Company, priority 2009, dated 2015)

Assays:
Test in all cases: Test B pre-/postemergence plant response
Assay type in all cases: in vivo
soybean (Glycine max) = tested on: soybean (Glycine max)
Outline: (§1)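 Compound in solvent + surfactant applied pre-em (loam/sand) or post-em (plants 2–18 cm, peat medium); greenhouse hold 13–15 days; visual 0–100 control score.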

[1] = tested on: Surinam grass (Brachiaria decumbens)
Outline: as §1

[2] = tested on: johnsongrass (Sorghum halepense)
Outline: as §1

corn (Zea mays) = tested on: corn (Zea mays)
Outline: as §1

[3] = tested on: blackgrass (Alopecurus myosuroides)
Outline: as §1

[4] = tested on: pigweed (Amaranthus retroflexus)
Outline: as §1

[5] = tested on: downy bromegrass (Bromus tectorum)
Outline: as §1

kochia (Kochia scoparia) = conditions: Postemergence
Outline: as §1

[6] = tested on: woolly cupgrass (Eriochloa villosa)
Outline: as §1

[7] = tested on: velvetleaf (Abutilon theophrasti)
Outline: as §1

[8] = tested on: ragweed (common ragweed, Ambrosia elatior)
Outline: as §1

[9] = tested on: giant foxtail (Setaria faberii)
Outline: as §1

[10] = tested on: Italian ryegrass (Lolium multiflorum)
Outline: as §1

[11] = 250 g ai/ha, Preemergence, 0 to 100 scale
[12] = Postemergence, 62 g ai/ha, scale 0 (no effect) to 100 (complete control), 13 to 15 days
[13] = Postemergence, 125 g ai/ha, visual rating after 13 to 15 days, scale 0 (no effect) to 100 (complete control)
[14] = Preemergence, 31 g ai/ha, scale 0 to 100 (0 no effect, 100 complete control)
[15] = Preemergence, 125 g ai/ha, 0 to 100 scale
[16] = Postemergence, 250 g ai/ha, scale 0 to 100
[17] = Preemergence, 62 g ai/ha, scale 0 to 100 (0 no effect, 100 complete control)
[18] = Postemergence, 31 g ai/ha, scale 0 to 100 (0 no effect, 100 complete control)
[19] = 16 g ai/ha, Postemergence, 0 to 100 scale
[20] = Postemergence, 31 g ai/ha, 0 to 100 scale (0 no effect, 100 complete control)
[21] = Postemergence, 62 g ai/ha, scale 0 to 100 (0 no effect, 100 complete control)
[22] = Postemergence, 125 g ai/ha, scale 0 to 100 (0 no effect, 100 complete control)

Cc1ccc(F)cc1-n1c(-c2ccccc2)ncc(C(=O)C2=C(O)CCCC2=O)c1=O [Compound 44]
30: Plant response rating, Blackgrass [3, 13] | Blackgrass plant response rating [3, 16] | Plant response rating, Blackgrass [3, 17]
98: Plant response rating, Pigweed [4, 13] | Plant response rating, Pigweed [4, 14] | Plant response rating, Velvetleaf [7, 12] | Plant response rating, Foxtail, Giant [9, 11] | Foxtail, Giant plant response rating [9, 16]
0: Plant response rating, Soybean (soybean (Glycine max); [11]) | Plant response rating, Soybean (soybean (Glycine max); [14]) | Soybean plant response rating (soybean (Glycine max); [15]) | Plant response rating, Corn (corn (Zea mays); [11]) | Plant response rating, Corn (corn (Zea mays); [14]) | Plant response rating, Corn (corn (Zea mays); [17]) | Corn plant response rating (corn (Zea mays); [15]) | Plant response rating, Blackgrass [3, 18] | Plant response rating, Bromegrass, Downy [5, 14] | Plant response rating, Bromegrass, Downy [5, 17] | Bromegrass, Downy plant response rating [5, 15] | Plant response rating, Cupgrass, Woolly [6, 14] | Plant response rating, Ryegrass, Italian [10, 11] | Plant response rating, Ryegrass, Italian [10, 14] | Ryegrass, Italian plant response rating [10, 15]
40: Blackgrass plant response rating [3, 15] | Plant response rating, Bromegrass, Downy [5, 18]
85: Corn plant response rating (corn (Zea mays); [16]) | Bromegrass, Downy plant response rating [5, 16] | Plant response rating, Cupgrass, Woolly [6, 11] | Plant response rating, Cupgrass, Woolly [6, 13]
90: Surinam Grass plant response rating [1, 15] | Plant response rating, Johnsongrass [2, 13] | Johnsongrass plant response rating [2, 15]
20: Plant response rating, Ragweed [8, 14] | Plant response rating, Foxtail, Giant [9, 14]
60: Plant response rating, Blackgrass [3, 11]
10: Plant response rating, Johnsongrass [2, 14] | Plant response rating, Blackgrass [3, 12] | Plant response rating, Ryegrass, Italian [10, 13]
65: Plant response rating, Surinam Grass [1, 14]
95: Plant response rating, Soybean (soybean (Glycine max); [12]) | Plant response rating, Soybean (soybean (Glycine max); [13]) | Plant response rating, Surinam Grass [1, 12] | Plant response rating, Surinam Grass [1, 13] | Plant response rating, Johnsongrass [2, 11] | Johnsongrass plant response rating [2, 16] | Plant response rating, Pigweed [4, 12] | Kochia plant response rating (kochia (Kochia scoparia); 250 g ai/ha, scale 0 to 100) | Cupgrass, Woolly plant response rating [6, 16] | Plant response rating, Ragweed [8, 11] | Plant response rating, Ragweed [8, 12] | Plant response rating, Ragweed [8, 13] | Ragweed plant response rating [8, 15] | Plant response rating, Foxtail, Giant [9, 18] | Plant response rating, Foxtail, Giant [9, 12] | Plant response rating, Foxtail, Giant [9, 13]
75: Plant response rating, Johnsongrass [2, 17] | Plant response rating, Corn (corn (Zea mays); [18]) | Plant response rating, Kochia (kochia (Kochia scoparia); 62 g ai/ha, scale 0 (no effect) to 100 (complete control), 13 to 15 days) | Plant response rating, Kochia (kochia (Kochia scoparia); 125 g ai/ha, visual rating after 13 to 15 days, scale 0 (no effect) to 100 (complete control)) | Plant response rating, Velvetleaf [7, 14] | Foxtail, Giant plant response rating [9, 15]
70: Plant response rating, Johnsongrass [2, 12] | Plant response rating, Bromegrass, Downy [5, 12]
100: Plant response rating, Surinam Grass [1, 11] | Plant response rating, Pigweed [4, 11] | Pigweed plant response rating [4, 15] | Plant response rating, Velvetleaf [7, 11] | Plant response rating, Velvetleaf [7, 13] | Velvetleaf plant response rating [7, 15]
80: Plant response rating, Corn (corn (Zea mays); [12]) | Plant response rating, Corn (corn (Zea mays); [13]) | Plant response rating, Bromegrass, Downy [5, 13] | Plant response rating, Cupgrass, Woolly [6, 18] | Plant response rating, Cupgrass, Woolly [6, 12] | Cupgrass, Woolly plant response rating [6, 15]
45: Plant response rating, Cupgrass, Woolly [6, 17] | Plant response rating, Foxtail, Giant [9, 17]
5: Plant response rating, Blackgrass [3, 14] | Plant response rating, Bromegrass, Downy [5, 11] | Plant response rating, Ryegrass, Italian [10, 12]

CC1(C)CC(=O)C(C(=O)c2cnc(-c3ccccc3)n(-c3ccccc3)c2=O)=C(O)C1 [Compound 225]
95: Plant response rating, Soybean (soybean (Glycine max); [21]) | Plant response rating, Pigweed [4, 21]
0: Plant response rating, Blackgrass [3, 19] | Plant response rating, Blackgrass [3, 20] | Plant response rating, Ryegrass, Italian [10, 19] | Plant response rating, Ryegrass, Italian [10, 20]
85: Plant response rating, Soybean (soybean (Glycine max); [20]) | Plant response rating, Bromegrass, Downy [5, 22] | Plant response rating, Cupgrass, Woolly [6, 22] | Plant response rating, Foxtail, Giant [9, 22]
50: Plant response rating, Corn (corn (Zea mays); [21])
90: Plant response rating, Pigweed [4, 20] | Plant response rating, Velvetleaf [7, 21]
5: Plant response rating, Blackgrass [3, 21] | Plant response rating, Kochia (kochia (Kochia scoparia); 16 g ai/ha, 0 to 100 scale) | Plant response rating, Kochia (kochia (Kochia scoparia); 31 g ai/ha, 0 to 100 scale (0 no effect, 100 complete control))
30: Plant response rating, Bromegrass, Downy [5, 19]
80: Plant response rating, Pigweed [4, 19] | Plant response rating, Velvetleaf [7, 19] | Plant response rating, Velvetleaf [7, 20] | Plant response rating, Ragweed [8, 21] | Plant response rating, Foxtail, Giant [9, 21]
15: Plant response rating, Blackgrass [3, 22] | Plant response rating, Kochia (kochia (Kochia scoparia); 125 g ai/ha, scale 0 to 100 (0 no effect, 100 complete control))
75: Plant response rating, Surinam Grass [1, 20] | Plant response rating, Surinam Grass [1, 21] | Plant response rating, Johnsongrass [2, 21] | Plant response rating, Johnsongrass [2, 22] | Plant response rating, Cupgrass, Woolly [6, 20] | Plant response rating, Cupgrass, Woolly [6, 21] | Plant response rating, Ragweed [8, 20] | Plant response rating, Foxtail, Giant [9, 19] | Plant response rating, Foxtail, Giant [9, 20]
60: Plant response rating, Johnsongrass [2, 20]
20: Plant response rating, Johnsongrass [2, 19]
10: Plant response rating, Corn (corn (Zea mays); [19]) | Plant response rating, Kochia (kochia (Kochia scoparia); 62 g ai/ha, scale 0 to 100 (0 no effect, 100 complete control))
40: Plant response rating, Corn (corn (Zea mays); [20])
70: Plant response rating, Corn (corn (Zea mays); [22]) | Plant response rating, Bromegrass, Downy [5, 21] | Plant response rating, Cupgrass, Woolly [6, 19] | Plant response rating, Ragweed [8, 19]
65: Plant response rating, Soybean (soybean (Glycine max); [19])
35: Plant response rating, Surinam Grass [1, 19] | Plant response rating, Bromegrass, Downy [5, 20] | Plant response rating, Ryegrass, Italian [10, 21]
